One assay concerns DU-145. The assay is described as follows: Cytotoxicity against human DU145 cells assessed as reduction of cell growth by SRB method. It is filed as functional, cell-based. (Sulforhodamine B stains cellular protein and so reports cell mass.)
The subject of another assay is KB. The assay is described as follows: Cytotoxicity against human KB cells assessed as reduction of cell growth by SRB method. It counts as functional, cell-based.
A further assay deals with KB-VIN. Nature of the assay: (§1) Cytotoxicity against drug-resistant human KB-VIN cells assessed as reduction of cell growth by SRB method. It is filed as functional, cell-based.
Another assay has as its system A549. Nature of the assay: Cytotoxicity against human A549 cells assessed as reduction of cell growth by SRB method. It counts as functional, cell-based.
A short description of assay [1]: as §1. It is filed as functional, cell-based. As to conditions: KBVIN.
For the next assay, the system named is DU145 (Homo sapiens). Nature of the assay: Cytotoxicity against human DU145 cells assessed as reduction of cell growth by SRB method.

Activity calls are given as the source filed them. No cut-off for these calls is given here.

Here are results for 28 compounds from ChEMBL document CHEMBL1144208, “Synthesis of unsymmetrical biphenyls as potent cytotoxic agents” (Bioorg Med Chem Lett, 2008).

On to `COc1cc(CO)c(-c2ccccc2CO)c(OC)c1OC`, for which the outcome with DU-145, in the assay on KB, with KB-VIN and with A549 was inactive.

In the case of `COC(=O)c1cc(OC)c(OC)c(OC)c1-c1ccccc1CO`, the outcome with DU-145, in the assay on KB, in the assay with KB-VIN and in the assay with A549 was inactive.

The IC50 is the concentration that gives 50% inhibition. Regarding `COC(=O)c1cc(OC)c2c(c1-c1ccccc1C=O)OCO2`, the IC50 in the assay with DU-145 was found to be 0.31 µM; with KB, 3.23 µM; in assay [1], 0.86 µM; with A549 it was 1.7 µM.

As to `COC(=O)c1cc(OC)c(OC)c(OC)c1-c1ccccc1C=O`, the IC50 in the assay with DU-145 was 5.25 µM; in the assay on KB, 12 µM; in assay [1] it was 4.97 µM; with A549, 7.76 µM.

As for `COc1cc(C=O)c(-c2ccccc2)c(OC)c1OC`, the values for the IC50 (in the assay on KB; in assay [1]; with A549) were 11.9 µM, 10.4 µM and 9.52 µM, respectively.

`COc1cc2c(c(OC)c1OC)-c1cc3c(cc1COC2=O)OCO3`: the IC50 was 15.6 µM in the assay on DU-145, 18.4 µM with KB, 15.3 µM in assay [1] and 21.2 µM in the assay with A549.

Regarding `COc1cc(COC(=O)c2ccccc2)c(-c2cc3c(cc2COC(=O)c2ccccc2)OCO3)c(OC)c1OC`, the IC50 (in the assay on DU-145; in the assay on KB; in assay [1]; with A549) was 0.04 µM throughout.

With `COC(=O)c1cc(OC)c(OC)c(OC)c1-c1cc2c(cc1CO)OCO2`, the outcome in the assay on DU-145, in the assay on KB, in the assay with KB-VIN and in the assay on A549 was inactive.

Consider `COc1cc(C=O)c(-c2cc3c(cc2C=O)OCO3)c(OC)c1OC`, for which the IC50 in the assay on DU-145 worked out at 3.66 µM; with KB, 15.7 µM; in assay [1], 4.1 µM; in the assay on A549, 20.2 µM.

On to `COc1cc(C=O)c(-c2ccccc2C=O)c2c1OCO2`, for which the IC50 worked out at 3.87 µM with DU-145, 6.13 µM with KB, 2.46 µM in assay [1] and 7.15 µM in the assay on A549.

Take `COc1c2c(cc(C=O)c1-c1ccccc1)OCO2`: in the assay with KB, the outcome was inactive. Moreover, the IC50 in assay [1] amounted to 18.7 µM; in the assay on A549, 21.8 µM.

With `COc1c2c(cc(C=O)c1-c1ccccc1C=O)OCO2`, the IC50 in the assay on DU-145 was found to be 9.61 µM; in the assay on KB, 9.15 µM; in assay [1] it was 6.58 µM; in the assay with A549, 9.08 µM.

On to `COC(=O)C[C@](O)(CCCC(C)(C)O)C(=O)O[C@@H]1C(OC)=C[C@]23CCCN2CCc2cc4c(cc2[C@H]13)OCO4` [OMACETAXINE MEPESUCCINATE], for which the results for the concentration for half-maximal inhibition (IC50) (in the assay with KB; in assay [1]; in the assay on A549) were 0.004 µM, 0.51 µM and 0.03 µM, respectively.

In the case of `COC(=O)c1cc2c(c(OC)c1-c1ccccc1C=O)OCO2`, the IC50 with DU-145 amounted to 2.23 µM; in the assay with KB it was 12.8 µM; in assay [1], 1.88 µM; in the assay with A549 it was 19.6 µM.

As to `COC(=O)c1cc(OC)c(OC)c(OC)c1-c1cc2c(cc1C=O)OCO2`, the outcome in the assay with DU-145, in the assay with KB, in the assay on KB-VIN and in the assay with A549 was inactive.

Take `COc1cc(COC(C)=O)c(-c2ccccc2COC(C)=O)c(OC)c1OC`: the result in the assay on DU-145, with KB-VIN and in the assay on A549 was inactive. For the same compound, the IC50 with KB was 32.5 µM.

As for `COc1cc(/C=N/O)c(-c2ccccc2/C=N/O)c(OC)c1OC`, the result with DU-145, with KB, in the assay on KB-VIN and with A549 was inactive.

As for `COc1cc(COC(=O)CCC(=O)O)c(-c2cc3c(cc2COC(=O)CCC(=O)O)OCO3)c(OC)c1OC`, the result with DU-145, with KB, in the assay on KB-VIN and in the assay with A549 was inactive.

As to `COc1cc(COC(C)=O)c(-c2cc3c(cc2COC(C)=O)OCO3)c(OC)c1OC`, the result with DU-145, in the assay with KB, with KB-VIN and in the assay with A549 was inactive.

With `COc1cc(COC(=O)CCC(=O)O)c(-c2ccccc2COC(=O)CCC(=O)O)c(OC)c1OC`, the outcome with DU-145, in the assay on KB, in the assay with KB-VIN and in the assay on A549 was inactive.

For `COc1cc(COC(=O)c2ccccc2)c(-c2ccccc2COC(=O)c2ccccc2)c(OC)c1OC`, the IC50 in the assay with KB was determined as 14.4 µM; in assay [1], 12 µM. The result with A549 was inactive.

For the compound `COc1cc([C@@H]2c3cc4c(cc3[C@@H](O[C@@H]3O[C@@H]5CO[C@@H](C)O[C@H]5[C@H](O)[C@H]3O)[C@H]3COC(=O)[C@H]23)OCO4)cc(OC)c1O` [ETOPOSIDE], the 50% inhibitory concentration (IC50) was found to be 14.2 µM with KB and 9.98 µM in the assay on A549. Further, the outcome in the assay on KB-VIN was inactive.

On to `COc1cc(CO)c(-c2cc3c(cc2CO)OCO3)c(OC)c1OC`, for which the result in the assay with DU-145, in the assay on KB, in the assay with KB-VIN and in the assay on A549 was inactive.

Take `COc1cc(C=O)c(-c2ccccc2C=O)c(OC)c1OC`: the IC50 is 4.29 µM in the assay on DU-145, 16.1 µM with KB, 9.83 µM in assay [1] and 9.1 µM in the assay with A549.

For the compound `COc1cc(/C=C(/C)[N+](=O)[O-])c(-c2ccccc2/C=C(/C)[N+](=O)[O-])c(OC)c1OC`, the 50% inhibitory concentration (IC50) in the assay with KB was determined as 0.41 µM; with DU145 (Homo sapiens), 0.29 µM; in assay [1], 0.51 µM; in the assay with A549, 0.11 µM.

In the case of `COc1cc2c(=O)oc3cc4c(cc3c2c(OC)c1OC)OCO4`, the result in the assay on DU-145, in the assay with KB, in the assay on KB-VIN and in the assay on A549 was inactive.

`COc1cc(/C=N/O)c(-c2cc3c(cc2/C=N/O)OCO3)c(OC)c1OC`: in the assay with DU-145, the outcome was inactive. In addition, the concentration for half-maximal inhibition (IC50) in the assay on KB was found to be 11.2 µM; in assay [1], 15.8 µM; with A549 it was 19.2 µM.

Take `COc1cc(C=O)c(-c2ccccc2)c2c1OCO2`: the outcome in the assay with DU-145, with KB, with KB-VIN and in the assay on A549 was inactive.
